Test results taken from ChEMBL document CHEMBL1201862, “PubChem BioAssay data set” (2004).
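Exposure lasted 48 hours, with cells grown in 96-well plates and compounds tested at five concentrations. GI50: concentration for 50% inhibition of growth.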 Active and inactive are the calls of the source. Rule as the data show it: active = GI50 up to about 1.1 µM and inactive = higher.

Assays:
Assay in all cases: DTP human tumour cell line panel, 48 h
[1] = test system: M14
[2] = test system: HOP-92
[3] = test system: UACC-62
[4] = test system: SK-MEL-2
[5] = test system: M19-MEL
[6] = test system: HCT-15
[7] = test system: HT-29
[8] = test system: SF-268
[9] = test system: TK-10
[10] = test system: HL-60
[11] = test system: EKVX
[12] = test system: SN12C
[13] = test system: RXF 393
[14] = test system: OVCAR-8
[15] = test system: UO-31
[16] = test system: COLO 205
[17] = test system: IGROV-1
[18] = test system: BT-549
[19] = test system: MCF7
[20] = test system: T47D

`CSCSCC(CO)NC(=O)/C=C/c1c(C)nc(O)nc1O` (configuration not stated) was tested, and the GI50 [1] was > 100 µM (inactive), the GI50 [2] was > 100 µM (inactive) and the GI50 [3] was > 100 µM (inactive). The GI50 [4] was 89.9 µM (inactive), the GI50 [5] was 84.3 µM (inactive) and the GI50 [6] was greater than 100 µM. The GI50 [7] was > 100 µM (inactive), the GI50 [8] was 30.8 µM (inactive) and the GI50 [9] was > 100 µM (inactive). For the same compound, the GI50 [10] was > 100 µM (inactive), the GI50 [11] was 57.1 µM (inactive) and the GI50 [12] was > 100 µM (inactive). The GI50 [13] was > 100 µM (inactive), the GI50 [14] was > 100 µM (inactive) and the GI50 [15] was > 100 µM (inactive).

With `Cc1ccc(C)c(N2C(=O)C(=O)C(c3nc4ccccc4o3)/C(=N/N)C2=O)c1` (configuration not stated) the GI50 [1] was > 100 µM (inactive), the GI50 [2] was > 100 µM (inactive) and the GI50 [3] was > 100 µM (inactive). The GI50 [4] was > 100 µM (inactive), the GI50 [5] was > 100 µM (inactive) and the GI50 [6] was greater than 100 µM. The GI50 [7] was > 100 µM (inactive), the GI50 [8] was > 100 µM (inactive) and the GI50 [16] was > 100 µM (inactive). The GI50 [9] was > 100 µM (inactive), the GI50 [10] was > 100 µM (inactive) and the GI50 [11] was > 100 µM (inactive). For the same compound, the GI50 [17] was > 100 µM (inactive), the GI50 [12] was > 100 µM (inactive) and the GI50 [13] was > 100 µM (inactive). For the same compound, the GI50 [14] was > 100 µM (inactive) and the GI50 [15] was > 100 µM (inactive).

For `C/C=C(/I)CBr`, the GI50 [1] was 13.8 µM (inactive), the GI50 [2] was 15.3 µM (inactive) and the GI50 [3] was 15.5 µM (inactive). The GI50 [4] was 14.4 µM (inactive), the GI50 [5] was 14.5 µM (inactive) and the GI50 [6] was 18.2 µM. For the same compound, the GI50 [8] was 23.6 µM (inactive), the GI50 [16] was 13.2 µM (inactive) and the GI50 [9] was > 10 µM (inactive). For the same compound, the GI50 [10] was 4.49 µM (inactive), the GI50 [11] was 21.7 µM (inactive) and the GI50 [17] was 16 µM (inactive). For the same compound, the GI50 [12] was 17.2 µM (inactive), the GI50 [13] was 17.3 µM (inactive) and the GI50 [14] was 19.4 µM (inactive). The GI50 [15] was 18.9 µM (inactive).

In the case of `O=C(c1ccc(Cl)cc1)c1ccc(OCC(=O)N2CCN(c3ccccc3)CC2)cc1`, the GI50 [1] is reported as > 100 µM (inactive), the GI50 [2] is reported as > 100 µM (inactive) and the GI50 [3] is reported as > 100 µM (inactive). The GI50 [4] was > 100 µM (inactive), the GI50 [5] was > 100 µM (inactive) and the GI50 [6] was greater than 100 µM. The GI50 [7] was > 100 µM (inactive), the GI50 [8] was > 100 µM (inactive) and the GI50 [16] was > 100 µM (inactive). For the same compound, the GI50 [9] was > 100 µM (inactive), the GI50 [10] was > 100 µM (inactive) and the GI50 [11] was > 100 µM (inactive). For the same compound, the GI50 [17] was > 100 µM (inactive), the GI50 [12] was > 100 µM (inactive) and the GI50 [13] was > 100 µM (inactive). The GI50 [14] was > 100 µM (inactive) and the GI50 [15] was > 100 µM (inactive).

`OC(c1ccccn1)C1CNc2ccccc21` (configuration not stated) was tested, and the GI50 [1] was > 100 µM (inactive), the GI50 [2] was > 100 µM (inactive) and the GI50 [3] was > 100 µM (inactive). The GI50 [4] was > 100 µM (inactive), the GI50 [5] was > 100 µM (inactive) and the GI50 [6] was greater than 100 µM. The GI50 [7] was > 100 µM (inactive), the GI50 [8] was > 100 µM (inactive) and the GI50 [16] was > 100 µM (inactive). The GI50 [9] was > 100 µM (inactive), the GI50 [10] was > 100 µM (inactive) and the GI50 [11] was > 100 µM (inactive). The GI50 [17] was > 100 µM (inactive), the GI50 [12] was > 100 µM (inactive) and the GI50 [13] was > 100 µM (inactive). The GI50 [14] was > 100 µM (inactive) and the GI50 [15] was > 100 µM (inactive).

For `O=C1C=C(c2c(O)ccc3ccccc23)c2cc(O)ccc2C1=O`, the GI50 [1] was 16.4 µM (inactive), the GI50 [2] was 16.1 µM (inactive) and the GI50 [3] was 4.43 µM (inactive). The GI50 [4] was 20.1 µM (inactive), the GI50 [5] was 3.33 µM (inactive) and the GI50 [6] was 16.7 µM. For the same compound, the GI50 [7] was 25.3 µM (inactive), the GI50 [8] was 16.3 µM (inactive) and the GI50 [16] was 19.5 µM (inactive). For the same compound, the GI50 [9] was 20.9 µM (inactive), the GI50 [10] was 2.02 µM (inactive) and the GI50 [11] was 21.2 µM (inactive). The GI50 [17] was 13.7 µM (inactive), the GI50 [12] was 18.2 µM (inactive) and the GI50 [13] was 14.6 µM (inactive). For the same compound, the GI50 [14] was 11.4 µM (inactive) and the GI50 [15] was 19.6 µM (inactive).

With `COc1ccc(/C=C/C(=O)c2c(-c3ccccc3)nn(C)c(=O)c2N2CC2C)cc1` (configuration not stated) the GI50 [1] was 28.8 µM (inactive), the GI50 [2] was 29 µM (inactive) and the GI50 [3] was 19 µM (inactive). The GI50 [4] was 21.8 µM (inactive), the GI50 [5] was 49.9 µM (inactive) and the GI50 [6] was 24.3 µM. For the same compound, the GI50 [7] was 32.4 µM (inactive), the GI50 [8] was 26.8 µM (inactive) and the GI50 [16] was 34.3 µM (inactive). For the same compound, the GI50 [9] was 41.1 µM (inactive), the GI50 [10] was 17.5 µM (inactive) and the GI50 [11] was 19.6 µM (inactive). For the same compound, the GI50 [17] was 59.3 µM (inactive), the GI50 [12] was 37 µM (inactive) and the GI50 [13] was 27.9 µM (inactive). For the same compound, the GI50 [14] was 32.4 µM (inactive) and the GI50 [15] was 70.3 µM (inactive).

In the case of `CC1=C(C(=O)Nc2ccccc2)C(c2ccc([N+](=O)[O-])cc2)C(C(=O)Nc2ccccc2)=C(C)N1`, the GI50 [1] is reported as 18.1 µM (inactive), the GI50 [2] is reported as 17.9 µM (inactive) and the GI50 [3] is reported as 12.2 µM (inactive). For the same compound, the GI50 [4] was 14.7 µM (inactive), the GI50 [5] was 16.6 µM (inactive) and the GI50 [6] was 17.6 µM. The GI50 [7] was 18.2 µM (inactive), the GI50 [8] was 22.6 µM (inactive) and the GI50 [9] was 28.7 µM (inactive). For the same compound, the GI50 [10] was 13.1 µM (inactive), the GI50 [11] was 21.5 µM (inactive) and the GI50 [17] was 28.6 µM (inactive). For the same compound, the GI50 [12] was 30.5 µM (inactive), the GI50 [13] was 17.6 µM (inactive) and the GI50 [14] was 17.3 µM (inactive). For the same compound, the GI50 [15] was 22.4 µM (inactive).

`O=C1OC(CC(=O)c2ccccc2Cl)C(Cl)=C1Cl` (configuration not stated) was tested, and the GI50 [1] was > 100 µM (inactive), the GI50 [2] was > 100 µM (inactive) and the GI50 [3] was > 100 µM (inactive). For the same compound, the GI50 [4] was > 100 µM (inactive), the GI50 [5] was > 100 µM (inactive) and the GI50 [6] was greater than 100 µM. The GI50 [7] was > 100 µM (inactive), the GI50 [8] was > 100 µM (inactive) and the GI50 [16] was > 100 µM (inactive). The GI50 [9] was > 100 µM (inactive), the GI50 [10] was > 100 µM (inactive) and the GI50 [11] was > 100 µM (inactive). The GI50 [17] was > 100 µM (inactive), the GI50 [12] was > 100 µM (inactive) and the GI50 [13] was > 100 µM (inactive). For the same compound, the GI50 [14] was > 100 µM (inactive) and the GI50 [15] was > 100 µM (inactive).

For `CCOC(=O)NC(=O)c1cn(CCN2CCN(C(=O)NCCCCCCNC(=O)N3CCN(CCn4cc(C(=O)NC(=O)OCC)c(=O)[nH]c4=O)CC3)CC2)c(=O)[nH]c1=O`, the GI50 [1] was > 100 µM (inactive), the GI50 [2] was > 100 µM (inactive) and the GI50 [3] was > 100 µM (inactive). The GI50 [4] was > 100 µM (inactive), the GI50 [5] was > 100 µM (inactive) and the GI50 [6] was greater than 100 µM. The GI50 [7] was > 100 µM (inactive), the GI50 [8] was > 100 µM (inactive) and the GI50 [16] was > 100 µM (inactive). For the same compound, the GI50 [9] was > 100 µM (inactive), the GI50 [10] was > 100 µM (inactive) and the GI50 [11] was > 100 µM (inactive). For the same compound, the GI50 [17] was > 100 µM (inactive), the GI50 [12] was > 100 µM (inactive) and the GI50 [13] was > 100 µM (inactive). For the same compound, the GI50 [14] was > 100 µM (inactive) and the GI50 [15] was > 100 µM (inactive).

With `O=C(O)CCC(O)=C1S(=O)(=O)OCCOS1(=O)=O` the GI50 [1] was > 100 µM (inactive), the GI50 [2] was > 100 µM (inactive) and the GI50 [3] was > 100 µM (inactive). For the same compound, the GI50 [4] was > 100 µM (inactive), the GI50 [5] was > 100 µM (inactive) and the GI50 [6] was greater than 100 µM. For the same compound, the GI50 [7] was > 100 µM (inactive), the GI50 [8] was > 100 µM (inactive) and the GI50 [16] was > 100 µM (inactive). For the same compound, the GI50 [9] was > 100 µM (inactive), the GI50 [18] was > 100 µM (inactive) and the GI50 [19] was > 100 µM (inactive). For the same compound, the GI50 [11] was > 100 µM (inactive), the GI50 [20] was > 100 µM (inactive) and the GI50 [17] was > 100 µM (inactive). For the same compound, the GI50 [12] was > 100 µM (inactive), the GI50 [13] was > 100 µM (inactive) and the GI50 [14] was > 100 µM (inactive). For the same compound, the GI50 [15] was > 100 µM (inactive).

With `COc1ccc(NS(=O)(=O)c2ccc(/N=C3\C=C(Nc4ccc(S(=O)(=O)Nc5ccc(OC)nn5)cc4)C(=O)c4ccccc43)cc2)nn1` the GI50 [1] was 17.5 µM (inactive), the GI50 [2] was 31 µM (inactive) and the GI50 [3] was 18.6 µM (inactive). The GI50 [4] was 16.9 µM (inactive), the GI50 [5] was 16.9 µM (inactive) and the GI50 [6] was 17 µM. The GI50 [7] was 20.5 µM (inactive), the GI50 [8] was 21.4 µM (inactive) and the GI50 [16] was 17.7 µM (inactive). The GI50 [9] was 21.9 µM (inactive), the GI50 [10] was > 100 µM (inactive) and the GI50 [11] was 24.8 µM (inactive). The GI50 [17] was 23.9 µM (inactive), the GI50 [12] was 18.1 µM (inactive) and the GI50 [13] was 18.4 µM (inactive). For the same compound, the GI50 [14] was 17.2 µM (inactive) and the GI50 [15] was 19.7 µM (inactive).
